Like-named read-outs stand apart in the source and are kept apart here.
Columns and labels:
[1] = test system: panel of 55 breast cancer cell lines; test: Cell growth inhibition assay (Cell Titer Glo, 72 h, 9 doses; GI50, TGI, LC50); assay type: cell-based, human; conditions: Homo sapiens, read-out: GI50 (converted)
[2] = test system: luminal, basal, claudin-low and ERBB2AMP breast cancer cell lines; test: Associations of clinically relevant subtypes and response (non-parametric ANOVA or t-test on GI50 ranks); assay type: cell-based, human; conditions: Table 6; most sensitive subtype, FDR p<0.20
Summary of the method: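 Significance was set at FDR p<0.20 after combining p-values across three test sets. Subtype–response associations came from rank-based non-parametric ANOVA or t-tests on GI50. For three-class comparisons, post-hoc tests of each group against the rest identified the most sensitive group, with FDR correction.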

`CC/C(=C(\c1ccccc1)c1ccc(OCCN(C)C)cc1)c1ccccc1` [Tamoxifen] was tested. Which GI50 ([1]; 600MPE cell line, censored GI50 values) did it give?
Its GI50 is 47.9 µM.

What about the GI50 ([1]; AU565, AU565 cell line, censored GI50 values) of the same molecule?
Its GI50 is 28.8 µM.

What about the GI50 ([1]; AU565, cell line AU565) of the same molecule?
The GI50 was 28.8 µM.

What about the GI50 ([1]; BT-474, BT474 cell line, censored GI50 values) of the same molecule?
The GI50 was 2.4 µM.

And the GI50 ([1]; BT-474, cell line BT474)?
Its GI50 is 2.4 µM.

What about the GI50 ([1]; BT-483, BT483 cell line, censored GI50 values) of the same molecule?
Its GI50 is 24 µM.

And the GI50 ([1]; BT-483, cell line BT483)?
The GI50 was 24 µM.

And the GI50 ([1]; BT-549, cell line BT549)?
Its GI50 is 166 µM.

What about the GI50 ([1]; CAMA-1, CAMA1 cell line, censored GI50 values) of the same molecule?
The GI50 was 34.7 µM.

What about the GI50 ([1]; CAMA-1, cell line CAMA1) of the same molecule?
The GI50 was 34.7 µM.

What about the GI50 ([1]; HCC38, HCC38 cell line, censored GI50 values) of the same molecule?
The GI50 was 52.5 µM.

What about the GI50 ([1]; HCC38, cell line HCC38) of the same molecule?
Its GI50 is 52.5 µM.

What about the GI50 ([1]; HCC70, cell line HCC70) of the same molecule?
The GI50 was 166 µM.

What about the GI50 ([1]; HCC202, HCC202 cell line, censored GI50 values) of the same molecule?
Its GI50 is 29.5 µM.

And the GI50 ([1]; HCC202, cell line HCC202)?
The GI50 was 29.5 µM.

And the GI50 ([1]; HCC1143, HCC1143 cell line, censored GI50 values)?
The GI50 was 16.2 µM.

And the GI50 ([1]; HCC1143, cell line HCC1143)?
Its GI50 is 16.2 µM.

And the GI50 ([1]; HCC1395, HCC1395 cell line, censored GI50 values)?
Its GI50 is 14.5 µM.

And the GI50 ([1]; HCC1395, cell line HCC1395)?
The GI50 was 14.5 µM.

And the GI50 ([1]; HCC1419, HCC1419 cell line, censored GI50 values)?
The GI50 was 33.1 µM.

And the GI50 ([1]; HCC1419, cell line HCC1419)?
Its GI50 is 33.1 µM.

What about the GI50 ([1]; HCC1428, HCC1428 cell line, censored GI50 values) of the same molecule?
The GI50 was 3.24 µM.

What about the GI50 ([1]; HCC1428, cell line HCC1428) of the same molecule?
The GI50 was 3.24 µM.

And the GI50 ([1]; HCC1500, HCC1500 cell line, censored GI50 values)?
Its GI50 is 105 µM.

What about the GI50 ([1]; HCC1500, cell line HCC1500) of the same molecule?
Its GI50 is 105 µM.

What about the GI50 ([1]; HCC1806, HCC1806 cell line, censored GI50 values) of the same molecule?
The GI50 was 13.2 µM.

What about the GI50 ([1]; HCC1806, cell line HCC1806) of the same molecule?
Its GI50 is 13.2 µM.

What about the GI50 ([1]; HCC1937, cell line HCC1937) of the same molecule?
The GI50 was 166 µM.

What about the GI50 ([1]; HCC1954, HCC1954 cell line, censored GI50 values) of the same molecule?
Its GI50 is 97.7 µM.

What about the GI50 ([1]; HCC1954, cell line HCC1954) of the same molecule?
The GI50 was 97.7 µM.

What about the GI50 ([1]; HCC2185 cell line, censored GI50 values) of the same molecule?
Its GI50 is 14.1 µM.

What about the GI50 ([1]; LY2 cell line, censored GI50 values) of the same molecule?
Its GI50 is 56.2 µM.

What about the GI50 ([1]; MCF7, MCF7 cell line, censored GI50 values) of the same molecule?
The GI50 was 102 µM.

And the GI50 ([1]; MCF7, cell line MCF7)?
Its GI50 is 102 µM.

And the GI50 ([1]; MDA-MB-134-VI, MDAMB134VI cell line, censored GI50 values)?
Its GI50 is 83.2 µM.

What about the GI50 ([1]; MDA-MB-175-VII, MDAMB175VII cell line, censored GI50 values) of the same molecule?
Its GI50 is 14.5 µM.

What about the GI50 ([1]; MDA-MB-415, MDAMB415 cell line, censored GI50 values) of the same molecule?
Its GI50 is 33.9 µM.

And the GI50 ([1]; MDA-MB-436, MDAMB436 cell line, censored GI50 values)?
Its GI50 is 30.9 µM.

What about the GI50 ([1]; MDA-MB-453, MDAMB453 cell line, censored GI50 values) of the same molecule?
The GI50 was 36.3 µM.

What about the GI50 ([1]; SK-BR-3, SKBR3 cell line, censored GI50 values) of the same molecule?
The GI50 was 105 µM.

And the GI50 ([1]; SUM52PE, SUM52PE cell line, censored GI50 values)?
The GI50 was 91.2 µM.

What about the GI50 ([1]; SUM149PT, SUM149PT cell line, censored GI50 values) of the same molecule?
Its GI50 is 102 µM.

What about the GI50 ([1]; SUM185PE, SUM185PE cell line, censored GI50 values) of the same molecule?
Its GI50 is 8.91 µM.

And the GI50 ([1]; SUM1315MO2, SUM1315MO2 cell line, censored GI50 values)?
The GI50 was 100 µM.

And the GI50 ([1]; UACC-893, UACC893 cell line, censored GI50 values)?
The GI50 was 3.09 µM.

And the GI50 ([1]; ZR-75B, ZR75B cell line, censored GI50 values)?
The GI50 was 16.2 µM.

What about the GI50 ([1]; cell line 600MPE) of the same molecule?
Its GI50 is 47.9 µM.

And the GI50 ([1]; cell line HCC2185)?
The GI50 was 14.1 µM.

And the GI50 ([1]; cell line HCC3153)?
Its GI50 is 166 µM.

What about the GI50 ([1]; cell line LY2) of the same molecule?
The GI50 was 56.2 µM.

And the Subtype specificity [2]?
Its Subtype specificity is “Luminal”.
